pIC50: −log10 of the molar value. Counter-ions that a name gives are not always drawn.
Key:
[1] = biological target: T1, Recombinant human IKKβ (residues 1-737) (Homo sapiens, UniProt O14920); test: IKK2 assay (TR-FRET); format: biochemical; settings: ATP 1 μM final, read-out: pIC50 against IKK2 (converted)
T1 construct: Recombinant human IKKβ (residues 1-737); GST (C); made in house
T1 sequence (O14920 1-737): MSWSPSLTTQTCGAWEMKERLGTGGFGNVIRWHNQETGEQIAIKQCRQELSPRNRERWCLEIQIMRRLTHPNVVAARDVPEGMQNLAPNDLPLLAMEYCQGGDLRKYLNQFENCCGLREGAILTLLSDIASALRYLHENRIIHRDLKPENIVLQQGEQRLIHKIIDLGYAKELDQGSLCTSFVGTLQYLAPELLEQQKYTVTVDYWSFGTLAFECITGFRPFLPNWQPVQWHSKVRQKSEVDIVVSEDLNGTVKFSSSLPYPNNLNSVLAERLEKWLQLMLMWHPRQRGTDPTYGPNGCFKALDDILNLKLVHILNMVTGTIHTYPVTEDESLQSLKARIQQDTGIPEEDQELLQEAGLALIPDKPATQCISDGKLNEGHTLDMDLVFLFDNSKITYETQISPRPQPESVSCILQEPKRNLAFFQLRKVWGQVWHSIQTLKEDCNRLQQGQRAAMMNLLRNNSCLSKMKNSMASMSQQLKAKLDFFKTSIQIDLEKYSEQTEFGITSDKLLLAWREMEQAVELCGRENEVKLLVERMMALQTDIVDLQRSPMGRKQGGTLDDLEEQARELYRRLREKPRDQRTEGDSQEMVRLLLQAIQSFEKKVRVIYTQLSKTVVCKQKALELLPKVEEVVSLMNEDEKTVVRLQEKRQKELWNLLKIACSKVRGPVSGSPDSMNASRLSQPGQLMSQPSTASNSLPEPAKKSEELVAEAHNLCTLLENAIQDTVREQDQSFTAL
Method in brief: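 TR-FRET readout (665 nm over 620 nm Eu reference) of GST-IB Ser32/36 phosphorylation after 60 min detection. Reaction: 1 μM ATP, 25 nM substrate, 0.5-5 nM GST-fused IKKβ 1-737 from baculovirus, pH 7.4 HEPES buffer, 1.7% DMSO, 15 min room temperature, EDTA-terminated.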

[2] = tested on: human monocyte stimulated cytokine production (TNF-α); test: Monocyte assay (LPS-stimulated TNF-α production); format: cell-based; settings: for inhibition at 0.3 µM: read-out: inhibition at 300 nM in the monocyte assay; for pIC50: 24 h, 200 ng/mL LPS, TNF-α by ELISA
Method in brief: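 TNF-α release was measured by ELISA after 24 hrs at 37 C. Cells were stimulated with 200 ng/mL E. coli LPS, with compound added 30 minutes beforehand (0.1% DMSO vehicle). Cells were Ficoll/MACS-isolated CD14+ human monocytes adhered at 1×10^6 cells/mL, and viability was checked by trypan blue.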

IC50 [1] [µM] | pIC50 [2] | SMILES | inhibition at 0.3 µM [2] [%]
≤ 10 |  | CCS(=O)(=O)N1CCC(c2c[nH]c3c(C(N)=O)cc(-c4csc(CN5CCC[C@@H]5C(N)=O)c4)cc23)CC1 [Example 48, 5-(5-{[(2R)-2-(aminocarbonyl)-1-pyrrolidinyl]methyl}-3-thienyl)-3-[1-(ethylsulfonyl)-4-piperidinyl]-1H-indole-7-carboxamide] | 0 to 60
≤ 10 |  | CCS(=O)(=O)N1CCC(c2c[nH]c3c(C(N)=O)cc(-c4csc(CN5CC[C@H](N(C)C)C5)c4)cc23)CC1 [Example 49, 5-(5-{[(3S)-3-(dimethylamino)-1-pyrrolidinyl]methyl}-3-thienyl)-3-[1-(ethylsulfonyl)-4-piperidinyl]-1H-indole-7-carboxamide] | 0 to 60
≤ 10 | < 6.00 | CCS(=O)(=O)N1CCC(c2c[nH]c3c(C(N)=O)cc(-c4cnn(CCN5CCC(N(C)C)CC5)c4)cc23)CC1 [Example 50, 5-(1-{2-[4-(dimethylamino)-1-piperidinyl]ethyl}-1H-pyrazol-4-yl)-3-[1-(ethylsulfonyl)-4-piperidinyl]-1H-indole-7-carboxamide trifluoroacetate] | 
≤ 10 |  | CCS(=O)(=O)N1CCC(c2c[nH]c3c(C(N)=O)cc(-c4cc(CN(C)C)c5c(c4)OCC5)cc23)CC1 [Example 58, 5-{4-[(dimethylamino)methyl]-2,3-dihydro-1-benzofuran-6-yl}-3-[1-(ethylsulfonyl)-4-piperidinyl]-1H-indole-7-carboxamide] | 0 to 60
≤ 10 |  | CCS(=O)(=O)N1CCC(c2c[nH]c3c(C(N)=O)cc(-c4cc(CN5CCOCC5)c5c(c4)OCC5)cc23)CC1 [Example 60, 3-[1-(ethylsulfonyl)-4-piperidinyl]-5-[4-(4-morpholinylmethyl)-2,3-dihydro-1-benzofuran-6-yl]-1H-indole-7-carboxamide] | 0 to 60
≤ 10 | ≥ 5.82 | CCS(=O)(=O)N1CCC(c2c[nH]c3c(C(N)=O)cc(-c4ccc(CNC(C)COC)s4)cc23)CC1 (centres unmarked) [Example 61, 3-[1-(ethylsulfonyl)-4-piperidinyl]-5-[5-({[1-methyl-2-(methyloxy)ethyl]amino}methyl)-2-thienyl]-1H-indole-7-carboxamide] | 
≤ 10 | ≥ 5.82 | CCS(=O)(=O)N1CCC(c2c[nH]c3c(C(N)=O)cc(-c4cncc(CNCCC#N)c4)cc23)CC1 [Example 62, 5-(5-{[(2-cyanoethyl)amino]methyl}-3-pyridinyl)-3-[1-(ethylsulfonyl)-4-piperidinyl]-1H-indole-7-carboxamide] | 
≤ 10 |  | CCS(=O)(=O)N1CCC(c2c[nH]c3c(C(N)=O)cc(-c4cncc(CNCC(F)(F)F)c4)cc23)CC1 [Example 63, 3-[1-(ethylsulfonyl)-4-piperidinyl]-5-(5-{[(2,2,2-trifluoroethyl)amino]methyl}-3-pyridinyl)-1H-indole-7-carboxamide] | 0 to 60
≤ 10 | ≥ 5.82 | CCS(=O)(=O)N1CCC(c2c[nH]c3c(C(N)=O)cc(-c4cccc(CN(C)C)c4)cc23)CC1 [Example 64, 5-{3-[(dimethylamino)methyl]phenyl}-3-[1-(ethylsulfonyl)-4-piperidinyl]-1H-indole-7-carboxamide] | 
≤ 10 | ≥ 5.82 | CCN(C)Cc1cc(-c2cc(C(N)=O)c3[nH]cc(C4CCN(S(=O)(=O)CC)CC4)c3c2)cs1 [Example 65, 5-(5-{[ethyl(methyl)amino]methyl}-3-thienyl)-3-[1-(ethylsulfonyl)-4-piperidinyl]-1H-indole-7-carboxamide trifluoroacetate] | 
≤ 10 | ≥ 5.82 | CCN(CC)CCN(C)Cc1cc(-c2cc(C(N)=O)c3[nH]cc(C4CCN(S(=O)(=O)CC)CC4)c3c2)cs1 [Example 66, 5-(5-{[[2-(diethylamino)ethyl](methyl)amino]methyl}-3-thienyl)-3-[1-(ethylsulfonyl)-4-piperidinyl]-1H-indole-7-carboxamide trifluoroacetate] | 
≤ 10 | ≥ 5.82 | CCCCN(C)Cc1cc(-c2cc(C(N)=O)c3[nH]cc(C4CCN(S(=O)(=O)CC)CC4)c3c2)cs1 [Example 67, 5-(5-{[butyl(methyl)amino]methyl}-3-thienyl)-3-[1-(ethylsulfonyl)-4-piperidinyl]-1H-indole-7-carboxamide trifluoroacetate] | 
≤ 10 | ≥ 5.82 | CCCN(C)Cc1cc(-c2cc(C(N)=O)c3[nH]cc(C4CCN(S(=O)(=O)CC)CC4)c3c2)cs1 [Example 68, 3-[1-(ethylsulfonyl)-4-piperidinyl]-5-(5-{[methyl(propyl)amino]methyl}-3-thienyl)-1H-indole-7-carboxamide trifluoroacetate] | 
≤ 10 | ≥ 5.82 | CCS(=O)(=O)N1CCC(c2c[nH]c3c(C(N)=O)cc(-c4csc(CN(C)CCN(C)C)c4)cc23)CC1 [Example 69, 5-(5-{[[2-(dimethylamino)ethyl](methyl)amino]methyl}-3-thienyl)-3-[1-(ethylsulfonyl)-4-piperidinyl]-1H-indole-7-carboxamide trifluoroacetate] | 
≤ 10 | < 6.00 | CCS(=O)(=O)N1CCC(c2c[nH]c3c(C(N)=O)cc(-c4csc(CN(C)CCCN(C)C)c4)cc23)CC1 [Example 70, 5-(5-{[[3-(dimethylamino)propyl](methyl)amino]methyl}-3-thienyl)-3-[1-(ethylsulfonyl)-4-piperidinyl]-1H-indole-7-carboxamide trifluoroacetate] | 
≤ 10 | ≥ 5.82 | CCS(=O)(=O)N1CCC(c2c[nH]c3c(C(N)=O)cc(-c4csc(CN(C)C5CCCC5)c4)cc23)CC1 [Example 71, 5-(5-{[cyclopentyl(methyl)amino]methyl}-3-thienyl)-3-[1-(ethylsulfonyl)-4-piperidinyl]-1H-indole-7-carboxamide trifluoroacetate] | 
≤ 10 | ≥ 5.82 | CCCCCN(C)Cc1cc(-c2cc(C(N)=O)c3[nH]cc(C4CCN(S(=O)(=O)CC)CC4)c3c2)cs1 [Example 72, 3-[1-(ethylsulfonyl)-4-piperidinyl]-5-(5-{[methyl(pentyl)amino]methyl}-3-thienyl)-1H-indole-7-carboxamide trifluoroacetate] | 
≤ 10 | ≥ 5.82 | CCS(=O)(=O)N1CCC(c2c[nH]c3c(C(N)=O)cc(-c4csc(CN(C)CC(C)C)c4)cc23)CC1 [Example 73, 3-[1-(ethylsulfonyl)-4-piperidinyl]-5-(5-{[methyl(2-methylpropyl)amino]methyl}-3-thienyl)-1H-indole-7-carboxamide trifluoroacetate] | 
≤ 10 |  | CCS(=O)(=O)N1CCC(c2c[nH]c3c(C(N)=O)cc(-c4csc(CN(C)Cc5ccccc5)c4)cc23)CC1 [Example 74, 3-[1-(ethylsulfonyl)-4-piperidinyl]-5-(5-{[methyl(phenylmethyl)amino]methyl}-3-thienyl)-1H-indole-7-carboxamide trifluoroacetate] | 0 to 60
≤ 10 | ≥ 5.82 | CCS(=O)(=O)N1CCC(c2c[nH]c3c(C(N)=O)cc(-c4csc(CN(C)CCO)c4)cc23)CC1 [Example 75, 3-[1-(ethylsulfonyl)-4-piperidinyl]-5-(5-{[(2-hydroxyethyl)(methyl)amino]methyl}-3-thienyl)-1H-indole-7-carboxamide trifluoroacetate] | 
≤ 10 | ≥ 5.82 | CCS(=O)(=O)N1CCC(c2c[nH]c3c(C(N)=O)cc(-c4csc(CN(C)CCc5ccccn5)c4)cc23)CC1 [Example 76, 3-[1-(ethylsulfonyl)-4-piperidinyl]-5-[5-({methyl[2-(2-pyridinyl)ethyl]amino}methyl)-3-thienyl]-1H-indole-7-carboxamide trifluoroacetate] | 
≤ 10 | ≥ 5.82 | CCS(=O)(=O)N1CCC(c2c[nH]c3c(C(N)=O)cc(-c4csc(CN(C)Cc5ccco5)c4)cc23)CC1 [Example 77, 3-[1-(ethylsulfonyl)-4-piperidinyl]-5-(5-{[(2-furanylmethyl)(methyl)amino]methyl}-3-thienyl)-1H-indole-7-carboxamide trifluoroacetate] | 

From patent publication US8063071B2 (GlaxoSmithKline, LLC, priority 2007, dated 2011)
